In ChEMBL document CHEMBL5576135, “Discovery of Indolo[3,2-c]isoquinoline Derivatives as Novel Top1/2 Dual Inhibitors with Orally Efficacious Antitumor Activity and Low Toxicity” (J Med Chem, 2024):
Active and inactive are the calls of the source. The calls are words filed in the database; no cut-off is given here.

How the values were obtained:
[1] = tested on: PC-3; assay: Antiproliferative activity against human PC-3 cells assessed as inhibition of cell growth incubated for 96 hrs by MTT based ELISA; assay type: functional; details: PC-3, 96 h
[2] = Toxicity in Kunming mouse assessed as change in serum AST level at 100 mg/kg,po administration for 2 weeks; assay type: organism-based; details: in vivo, 336 h
[3] = Toxicity in Kunming mouse assessed as change in organ coefficient of kidney at 100 mg/kg,po administration for 2 weeks; assay type: organism-based; details: in vivo, 336 h
[4] = biological target: DNA topoisomerase 2-alpha (Homo sapiens) (UniProt P11388); assay: Inhibition of Topoisomerase 2 (unknown origin) using pBR322 DNA as substrate at 50 uM incubated for 15 mins by EtBr staining based agarose gel electrophoresis method
[5] = biological target: DNA topoisomerase 2-alpha (Homo sapiens) (UniProt P11388); assay: Inhibition of Topoisomerase 2 (unknown origin) using pBR322 DNA as substrate at 100 uM incubated for 15 mins by EtBr staining based agarose gel electrophoresis method relative to control
[6] = tested on: NCI-H446; assay: Induction of DNA damage in human NCI-H446 cells assessed as increase in DNA fragments at 8 uM incubated for 48 hrs by comet assay; assay type: functional, cell-based
[7] = Cmax in ICR mouse at 10 mg/kg,po measured upto 24 hrs by LC-MS/MS analysis; assay type: ADME, organism-based; details: in vivo
[8] = biological target: T1, DNA topoisomerase 1 (Homo sapiens) (UniProt P11387); assay: Inhibition of Topoisomerase I (unknown origin) using pBR322 DNA as substrate at 10 uM incubated for 15 mins by EtBr staining based agarose gel electrophoresis method
T1 sequence (whole entry): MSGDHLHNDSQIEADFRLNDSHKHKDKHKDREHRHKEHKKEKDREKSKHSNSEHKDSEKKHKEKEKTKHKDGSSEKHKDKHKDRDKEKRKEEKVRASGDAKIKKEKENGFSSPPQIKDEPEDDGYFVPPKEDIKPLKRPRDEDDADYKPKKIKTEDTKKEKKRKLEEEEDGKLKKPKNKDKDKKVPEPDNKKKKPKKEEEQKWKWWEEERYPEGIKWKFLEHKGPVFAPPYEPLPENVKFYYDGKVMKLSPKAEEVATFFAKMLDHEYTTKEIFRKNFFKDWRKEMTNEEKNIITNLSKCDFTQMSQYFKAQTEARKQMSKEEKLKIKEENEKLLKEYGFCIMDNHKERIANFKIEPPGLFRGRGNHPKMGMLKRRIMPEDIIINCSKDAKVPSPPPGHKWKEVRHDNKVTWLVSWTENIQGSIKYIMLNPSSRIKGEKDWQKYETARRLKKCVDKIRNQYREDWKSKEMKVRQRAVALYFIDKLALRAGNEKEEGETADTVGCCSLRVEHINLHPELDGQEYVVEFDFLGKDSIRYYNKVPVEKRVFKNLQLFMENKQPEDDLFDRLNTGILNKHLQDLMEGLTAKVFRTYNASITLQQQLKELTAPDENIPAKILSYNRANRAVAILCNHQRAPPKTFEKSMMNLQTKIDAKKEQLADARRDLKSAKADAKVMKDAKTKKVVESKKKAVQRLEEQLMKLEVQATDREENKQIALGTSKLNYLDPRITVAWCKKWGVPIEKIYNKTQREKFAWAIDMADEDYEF

[9] = Toxicity in Kunming mouse assessed as change in body weight at 100 mg/kg,po administration for 2 weeks; assay type: organism-based; details: in vivo, 336 h
[10] = tested on: Cell membrane; assay: Induction of mitochondrial membrane potential loss in human NCI-H446 cells at 8 uM incubated for 24 hrs by JC-1 staining based flow cytometry; assay type: cell membranes
[11] = tested on: NCI-H446; assay: Antiproliferative activity against human NCI-H446 cells assessed as inhibition of cell growth incubated for 96 hrs by MTT based ELISA; assay type: functional; details: NCI-H446, 96 h
[12] = Toxicity in Kunming mouse assessed as morphological change in heart at 100 mg/kg,po administration for 2 weeks; assay type: organism-based; details: in vivo, 336 h
[13] = tested on: NCI-H2228; assay: Antiproliferative activity against human NCI-H2228 cells assessed as inhibition of cell growth incubated for 96 hrs by MTT based ELISA; assay type: functional; details: NCI-H2228, 96 h
[14] = tested on: PC-9; assay: Antiproliferative activity against human PC-9 cells assessed as inhibition of cell growth incubated for 96 hrs by MTT based ELISA; assay type: functional; details: PC-9, 96 h
[15] = tested on: NCI-H446; assay: Induction of DNA damage in human NCI-H446 cells assessed as increase in intracellular gamma-H2AX level at 2 to 8 uM incubated for 48 hrs by Western blotting analysis; assay type: functional, cell-based; details: dose 2-8 µM
[16] = Tmax in ICR mouse at 10 mg/kg,po measured upto 24 hrs by LC-MS/MS analysis; assay type: ADME, organism-based; details: in vivo
[17] = tested on: A549; assay: Antiproliferative activity against human A549 cells assessed as inhibition of cell growth incubated for 96 hrs by MTT based ELISA; assay type: functional; details: A549, 96 h
[18] = tested on: NCI-H446; assay: Inhibition of cell migration in human NCI-H446 cells at 2 uM incubated for 48 hrs by phase-contrast microscopic analysis relative to control; assay type: functional
[19] = tested on: MDA-MB-231; assay: Antiproliferative activity against human MDA-MB-231 cells assessed as inhibition of cell growth incubated for 96 hrs by MTT based ELISA; assay type: functional; details: MDA-MB-231, 96 h
[20] = Toxicity in Kunming mouse assessed as lethal dose at po administration for 2 weeks; assay type: organism-based; details: in vivo
[21] = tested on: NCI-H446; assay: Inhibition of colony formation in human NCI-H446 cells at 1 uM incubated for 24 hrs by crystal violet staining based analysis relative to control; assay type: functional
[22] = Toxicity in Kunming mouse assessed as change in organ coefficient of liver at 100 mg/kg,po administration for 2 weeks; assay type: organism-based; details: in vivo, 336 h
[23] = MRT (0 to infinity) in ICR mouse at 10 mg/kg,po measured upto 24 hrs by LC-MS/MS analysis; assay type: ADME, organism-based; details: in vivo
[24] = Toxicity in Kunming mouse assessed as change in serum creatinine level at 100 mg/kg,po administration for 2 weeks; assay type: organism-based; details: in vivo, 336 h
[25] = tested on: NCI-H446; assay: Inhibition of colony formation in human NCI-H446 cells at 2 uM incubated for 24 hrs by crystal violet staining based analysis relative to control; assay type: functional
[26] = tested on: NCI-H446; assay: Induction of DNA damage in human NCI-H446 cells assessed as increase in intracellular ROS level at 4 to 8 uM incubated for 6 hrs by DCFHDA probe based fluorescence microscopic analysis; assay type: functional, cell-based; details: dose 4-8 µM
[27] = Toxicity in Kunming mouse assessed as change in organ coefficient of lung at 100 mg/kg,po administration for 2 weeks; assay type: organism-based; details: in vivo, 336 h
[28] = Toxicity in Kunming mouse assessed as morphological change in kidney at 100 mg/kg,po administration for 2 weeks; assay type: organism-based; details: in vivo, 336 h
[29] = tested on: DU-145; assay: Antiproliferative activity against human DU-145 cells assessed as inhibition of cell growth incubated for 96 hrs by MTT based ELISA; assay type: functional; details: DU-145, 96 h
[30] = Toxicity in Kunming mouse assessed as change in serum blood urea nitrogen level at 100 mg/kg,po administration for 2 weeks; assay type: organism-based; details: in vivo, 336 h
[31] = Toxicity in Kunming mouse assessed as morphological change in lung at 100 mg/kg,po administration for 2 weeks; assay type: organism-based; details: in vivo, 336 h

Sequence of DNA topoisomerase 2-alpha (Homo sapiens) (P11388 whole entry, the tested form may be a part): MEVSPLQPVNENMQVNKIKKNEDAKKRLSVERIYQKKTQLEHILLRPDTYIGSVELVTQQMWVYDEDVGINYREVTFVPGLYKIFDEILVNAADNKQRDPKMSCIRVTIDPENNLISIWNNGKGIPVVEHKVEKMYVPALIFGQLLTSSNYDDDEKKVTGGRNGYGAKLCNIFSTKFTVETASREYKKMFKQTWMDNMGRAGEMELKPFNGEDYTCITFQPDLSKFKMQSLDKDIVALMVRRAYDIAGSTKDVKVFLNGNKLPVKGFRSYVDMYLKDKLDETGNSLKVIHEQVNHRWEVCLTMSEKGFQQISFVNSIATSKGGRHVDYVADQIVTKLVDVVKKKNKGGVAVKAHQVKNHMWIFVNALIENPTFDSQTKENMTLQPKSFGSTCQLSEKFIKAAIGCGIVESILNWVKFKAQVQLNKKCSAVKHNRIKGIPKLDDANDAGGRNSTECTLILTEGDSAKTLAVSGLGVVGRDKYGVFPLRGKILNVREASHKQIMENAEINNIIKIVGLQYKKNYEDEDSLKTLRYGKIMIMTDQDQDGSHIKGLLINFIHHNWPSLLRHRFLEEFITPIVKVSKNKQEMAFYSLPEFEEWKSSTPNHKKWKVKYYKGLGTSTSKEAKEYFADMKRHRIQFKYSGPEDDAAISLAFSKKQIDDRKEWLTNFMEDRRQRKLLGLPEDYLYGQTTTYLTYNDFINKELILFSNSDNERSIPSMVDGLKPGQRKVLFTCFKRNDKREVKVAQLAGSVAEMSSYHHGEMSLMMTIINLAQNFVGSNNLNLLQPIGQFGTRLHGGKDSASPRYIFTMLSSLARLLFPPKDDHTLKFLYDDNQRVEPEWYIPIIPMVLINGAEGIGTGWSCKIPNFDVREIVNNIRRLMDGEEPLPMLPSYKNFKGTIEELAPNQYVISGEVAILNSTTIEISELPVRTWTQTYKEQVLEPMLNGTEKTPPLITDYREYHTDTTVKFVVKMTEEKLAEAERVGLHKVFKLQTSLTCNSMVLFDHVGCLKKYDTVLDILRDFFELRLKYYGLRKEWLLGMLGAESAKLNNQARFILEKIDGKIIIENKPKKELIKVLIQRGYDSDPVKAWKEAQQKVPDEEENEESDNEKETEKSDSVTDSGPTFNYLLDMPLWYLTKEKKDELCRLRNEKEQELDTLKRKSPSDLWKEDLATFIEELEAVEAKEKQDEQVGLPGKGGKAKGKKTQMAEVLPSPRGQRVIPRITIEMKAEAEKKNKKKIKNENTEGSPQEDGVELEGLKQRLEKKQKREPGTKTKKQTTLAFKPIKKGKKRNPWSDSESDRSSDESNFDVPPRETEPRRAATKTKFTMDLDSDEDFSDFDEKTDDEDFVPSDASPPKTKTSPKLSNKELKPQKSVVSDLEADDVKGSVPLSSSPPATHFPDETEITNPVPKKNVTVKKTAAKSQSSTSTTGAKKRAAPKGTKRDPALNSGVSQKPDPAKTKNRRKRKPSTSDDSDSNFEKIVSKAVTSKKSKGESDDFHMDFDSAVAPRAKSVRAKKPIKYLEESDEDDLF

Compound	IC50 [1] [nM]	Activity [2]	Activity [3]	inhibition [4]	inhibition [5] [%]	Activity [6]	Cmax [7] [ng/mL]	inhibition [8]	Activity [9]	Activity [10]	IC50 [11] [nM]	Activity [12]	IC50 [13] [nM]	IC50 [14] [nM]	Activity [15]	Tmax [16] [h]	IC50 [17] [nM]	inhibition at 2 µM [18] [%]	IC50 [19] [nM]	LD50 at 336 h [20] [mg/kg]	other results
CN(C)CCCn1c2cc3c(cc2c2ncc4ccccc4c21)OCO3	400	Non-Toxic	Non-Toxic	Active	> 95	Active	284	Active	Non-Toxic	Active	90	Non-Toxic	880	760	Active	2	1100	77.1	290	> 1000	inhibition at 1 µM [21]: > 90%; Activity [22]: Non-Toxic; MRT inf [23]: 5 h; Activity [24]: Non-Toxic; inhibition at 2 µM [25]: > 90%; Activity [26]: Active; Activity [27]: Non-Toxic; Activity [28]: Non-Toxic; IC50 [29]: 520 nM; Activity [30]: Non-Toxic; Activity [31]: Non-Toxic
COc1ccc2c(c1)c1ncc3ccccc3c1n2CCCC(=O)NO	970	Non-Toxic	Non-Toxic	Active	> 95	Active	109	Active	Non-Toxic	Active	120	Non-Toxic	2340	1260	Active	1	2510	73.2	550	> 1000	inhibition at 1 µM [21]: > 90%; Activity [22]: Non-Toxic; MRT inf [23]: 1.72 h; Activity [24]: Non-Toxic; inhibition at 2 µM [25]: > 90%; Activity [26]: Active; Activity [27]: Non-Toxic; Activity [28]: Non-Toxic; IC50 [29]: 860 nM; Activity [30]: Non-Toxic; Activity [31]: Non-Toxic
